Broadly, the inhibition is the drop in the measured response relative to a control, in per cent.

Holding throughout (assay type): biochemical
The target in assay [1] is T1, phosphorylated VEGF-R2Δ50 (FLVK-P) (Homo sapiens, UniProt P35968, DEL940-989/E990V).
T1 construct: VEGF-R2Δ50 contains residues 806-939 and 990-1171; made in house; host or cells: baculovirus/insect cells
The assay can be described thus: VEGF-R2 coupled spectrophotometric (FLVK-P) assay. To be noted: combinatorial library compounds; for inhibition at 20 µM: read-out: VEGF % inhibition at 20 μM, 20 μM. Put shortly:
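Baculovirus-expressed human VEGF-R2Δ50 (residues 806-939/990-1171, E990V) was autophosphorylated with 3 mM ATP, 40 mM MgCl2 for 2 h at 4° C. ADP formation was coupled via PK/LDH to NADH oxidation, read at 340 nm, with 5.1 mM poly(E4Y1), 1 mM ATP, 25 mM MgCl2, Hepes pH 7.5. Ki came from activity across compound concentrations.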

For the next assay, the target named is T2, FL-CHK1 (Homo sapiens, UniProt O14757).
T2 construct: C-terminally His-tagged full-length human CHK1 (FL-CHK1); 6xHis (C); made in house; host or cells: baculovirus/insect cells
T2 sequence (O14757 1-476): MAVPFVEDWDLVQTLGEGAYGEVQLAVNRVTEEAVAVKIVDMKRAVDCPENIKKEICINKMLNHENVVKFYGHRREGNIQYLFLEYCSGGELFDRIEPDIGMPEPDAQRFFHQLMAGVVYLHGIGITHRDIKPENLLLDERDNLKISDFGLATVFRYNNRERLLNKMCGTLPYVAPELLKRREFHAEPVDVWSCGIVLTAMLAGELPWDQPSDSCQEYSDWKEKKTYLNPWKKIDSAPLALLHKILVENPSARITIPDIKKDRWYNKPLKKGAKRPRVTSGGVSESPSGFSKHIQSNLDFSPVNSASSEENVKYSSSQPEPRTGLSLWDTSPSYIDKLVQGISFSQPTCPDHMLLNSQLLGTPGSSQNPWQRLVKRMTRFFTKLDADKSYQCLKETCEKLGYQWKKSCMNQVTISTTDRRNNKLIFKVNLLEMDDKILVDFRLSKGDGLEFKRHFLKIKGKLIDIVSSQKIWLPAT
Put plainly: CHK1 assay. To be noted: 20 μM; combinatorial library compounds. The method, boiled down: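 Full-length human CHK1 with C-terminal 6×His tag, made in baculovirus/insect cells, 10 nM, phosphorylating 0.125 mM Syntide-2 with 0.15 mM ATP in 50 mM Tris pH 7.5, 25 mM MgCl2, 400 mM NaCl. PK/LDH-coupled NADH oxidation read at 340 nm. Ki from initial rates over varied compound concentrations.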

The target in a further assay is CDK2/Cyclin A complex (Homo sapiens, UniProt P24941). The assay can be described thus: CDK2/Cyclin A assay. As to conditions: 1.0 μM; combinatorial library compounds. The method, boiled down: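 Radiometric assay: 150 nM CDK2/cyclin A (insect-cell CDK2, truncated cyclin A) phosphorylates His-tagged Rb fragment (residues 386-928) with 25 μM ATP plus [32P]ATP, pH 7.4 HEPES, 2% DMSO, 30 °C for 20 min. Filter-captured product counted by phosphorimager; apparent Ki from competitive or tight-binding inhibition fits.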

The target of a further assay is T3, CDK4/Cyclin D3 complex (Homo sapiens, UniProt P11802).
T3 construct: made in house; host or cells: insect cells co-infected with baculovirus vectors
T3 sequence (P11802 whole entry): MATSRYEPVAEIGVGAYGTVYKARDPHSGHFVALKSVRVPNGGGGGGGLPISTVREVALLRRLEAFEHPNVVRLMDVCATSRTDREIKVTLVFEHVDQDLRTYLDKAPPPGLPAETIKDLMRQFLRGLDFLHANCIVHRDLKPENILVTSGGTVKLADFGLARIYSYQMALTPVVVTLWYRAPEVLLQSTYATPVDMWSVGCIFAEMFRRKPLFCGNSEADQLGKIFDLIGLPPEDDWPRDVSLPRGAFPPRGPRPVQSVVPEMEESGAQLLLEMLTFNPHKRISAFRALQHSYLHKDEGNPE
T3 sequence (P30281 whole entry partner): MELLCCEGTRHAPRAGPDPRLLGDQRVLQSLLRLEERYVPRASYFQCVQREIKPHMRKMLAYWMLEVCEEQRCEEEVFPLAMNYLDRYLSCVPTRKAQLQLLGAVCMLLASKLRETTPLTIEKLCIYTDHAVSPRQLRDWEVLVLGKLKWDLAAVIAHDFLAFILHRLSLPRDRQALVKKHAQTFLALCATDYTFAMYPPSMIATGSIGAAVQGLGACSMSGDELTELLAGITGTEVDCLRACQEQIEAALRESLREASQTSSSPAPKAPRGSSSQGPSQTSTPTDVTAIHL
The assay can be described thus: CDK4/Cyclin D assay. To be noted: 1.0 μM; combinatorial library compounds. Put shortly:
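Insect-cell-expressed CDK4/cyclin D3 (50 nM) phosphorylating His-tagged Rb fragment (residues 386-928) with 25 μM [^32P]ATP in HEPES pH 7.4, MgCl2, 2% DMSO; 20 min at 30 °C, EDTA stop. Filter-captured 32P by phosphorimager; apparent Ki from competitive or tight-binding inhibition fits.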

Each structure is given as a SMILES string.

T1 sequence (P35968 with tags, fused parts or gaps DEL940-989/E990V limits assumed): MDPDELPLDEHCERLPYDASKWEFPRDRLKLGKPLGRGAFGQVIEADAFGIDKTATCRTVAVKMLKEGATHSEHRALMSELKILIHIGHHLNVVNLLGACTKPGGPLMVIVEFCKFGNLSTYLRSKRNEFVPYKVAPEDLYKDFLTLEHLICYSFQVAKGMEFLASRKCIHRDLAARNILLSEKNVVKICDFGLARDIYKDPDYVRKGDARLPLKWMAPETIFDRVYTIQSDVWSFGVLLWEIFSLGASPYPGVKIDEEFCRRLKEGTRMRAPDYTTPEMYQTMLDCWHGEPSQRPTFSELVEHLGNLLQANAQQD

As to `CC(C)c1ccc(Nc2nc(N)c(-c3nc(-c4ccc5c(c4)OCCO5)cs3)s2)cc1`, the inhibition at 20 µM stood at 14% in assay [1] and 23.8% at FL-CHK1. In addition, the inhibition at 1 µM on CDK2/Cyclin A complex is 22%; at CDK4/Cyclin D3 complex, 50.6%.
In the same order, the values of `CN(C)c1ccc(Nc2nc(N)c(-c3nc(-c4ccc(Cl)cc4)cs3)s2)cc1` are 10%, 2.5%, 11.2% and 36.5%.
On to `CC(C)c1ccc(Nc2nc(N)c(-c3nc(-c4ccc([N+](=O)[O-])cc4)cs3)s2)cc1`, for which the values for the inhibition at 20 µM (in assay [1]; on FL-CHK1) were -4% and 6%, respectively. The values for the inhibition at 1 µM at CDK2/Cyclin A complex and at CDK4/Cyclin D3 complex were 17.8% and 35.6%, respectively.
In the case of `CN(C)c1ccc(Nc2nc(N)c(-c3nc(-c4ccc(F)cc4F)cs3)s2)cc1`, the inhibition at 20 µM in assay [1] is 34%; on FL-CHK1 it was 25.2%. In addition, the inhibition at 1 µM at CDK2/Cyclin A complex came out at 20.3%; at CDK4/Cyclin D3 complex, 64.3%.
For the molecule `CN(C)c1ccc(Nc2nc(N)c(-c3nc(-c4c(Cl)cc(C(F)(F)F)cc4Cl)cs3)s2)cc1`, the values for the inhibition at 20 µM (in assay [1]; at FL-CHK1) were 26% and 37.5%, respectively. The inhibition at 1 µM was 29.1% on CDK2/Cyclin A complex and 82.6% on CDK4/Cyclin D3 complex.
In the case of `CN(C)c1ccc(Nc2nc(N)c(-c3nc(-c4ccc5oc6ccccc6c5c4)cs3)s2)cc1`, the values for the inhibition at 20 µM (in assay [1]; at FL-CHK1) were 27% and 29.3%, respectively. Also, the inhibition at 1 µM at CDK2/Cyclin A complex turned out to be 38.3%; on CDK4/Cyclin D3 complex, 63.5%.
For `Nc1nc(Nc2ccc(S(N)(=O)=O)cc2)sc1-c1nc(-c2ccc(OC(=O)c3ccccc3)cc2)cs1`, the inhibition at 20 µM in assay [1] came out at 8%; at FL-CHK1 it was 4.4%. The inhibition at 1 µM on CDK2/Cyclin A complex was 20.7%; at CDK4/Cyclin D3 complex it was -27%.
For the molecule `Cc1c(-c2csc(-c3sc(Nc4ccc(N(C)C)cc4)nc3N)n2)sc2ccc(Cl)cc12` [drawing 552], the “VEGF % inhibition at 20 μM” value in assay [1] came to 29%. Moreover, the “CHK1 % Inhibition at 20 μM” value at FL-CHK1 worked out at 26.8%. Moreover, the “CDK2 % Inhibition at 1.0 μM” value on CDK2/Cyclin A complex is recorded as 37.3%. Further, the “CDK4 % Inhibition at 1.0 μM” value on CDK4/Cyclin D3 complex was 65.1%.
On to `Nc1nc(Nc2ccc(S(N)(=O)=O)cc2)sc1-c1nc(-c2ccc(Cl)c(Cl)c2)cs1`, for which the inhibition at 20 µM in assay [1] amounted to 9%; at FL-CHK1, 11.7%. Also, the inhibition at 1 µM at CDK2/Cyclin A complex was 1.3%; on CDK4/Cyclin D3 complex, -3.1%.
In the same order, the values of `Nc1nc(Nc2ccc(S(N)(=O)=O)cc2)sc1-c1nc(-c2ccc3c(c2)OCCO3)cs1` are 29%, 20.1%, 21.4% and 31.8%.
As for `CN(C)c1ccc(Nc2nc(N)c(-c3nc(-c4cccc([N+](=O)[O-])c4)cs3)s2)cc1`, the results for the inhibition at 20 µM (in assay [1]; at FL-CHK1) were 6% and 13.8%, respectively. For the same molecule, the inhibition at 1 µM is 17.1% at CDK2/Cyclin A complex and 27% on CDK4/Cyclin D3 complex.
Consider `CCCCCc1ccc(-c2csc(-c3sc(Nc4ccc(C(C)C)cc4)nc3N)n2)cc1`, for which the figures for the inhibition at 20 µM (in assay [1]; at FL-CHK1) were -14% and 0.7%, respectively. Further, the results for the inhibition at 1 µM on CDK2/Cyclin A complex and on CDK4/Cyclin D3 complex were 3.6% and 10.3%, respectively.
In the case of `CC(C)c1ccc(Nc2nc(N)c(-c3nc(-c4ccc(F)c(F)c4)cs3)s2)cc1`, the inhibition at 20 µM in assay [1] was determined as 5%; at FL-CHK1, 10.9%. The inhibition at 1 µM at CDK2/Cyclin A complex was determined as 21.2%; at CDK4/Cyclin D3 complex, 39.5%.
Regarding `CC(C)c1ccc(Nc2nc(N)c(-c3nc(-c4ccc(C(F)(F)F)cc4)cs3)s2)cc1`, the inhibition at 20 µM in assay [1] is -4%; at FL-CHK1, 3.7%. Moreover, the inhibition at 1 µM was 8.7% at CDK2/Cyclin A complex and 48.3% at CDK4/Cyclin D3 complex.
Taken in the same sequence, the figures for `CC(=O)Oc1ccccc1-c1csc(-c2sc(Nc3ccc(S(N)(=O)=O)cc3)nc2N)n1` were 33%, -7.3%, 25.4% and -4.8%.
For `Nc1nc(Nc2ccc(S(N)(=O)=O)cc2)sc1-c1nc(-c2ccc(O)c(O)c2)cs1`, the figures for the inhibition at 20 µM (in assay [1]; at FL-CHK1) were 49% and 28.5%, respectively. The values for the inhibition at 1 µM at CDK2/Cyclin A complex and on CDK4/Cyclin D3 complex were 55.9% and 57.2%, respectively.
Take `CCOC(=O)c1ccccc1-c1csc(-c2sc(Nc3ccc(S(N)(=O)=O)cc3)nc2N)n1`: the figures for the inhibition at 20 µM (in assay [1]; at FL-CHK1) were 9% and 11.4%, respectively. Also, the inhibition at 1 µM worked out at 52.6% at CDK2/Cyclin A complex and 53.3% on CDK4/Cyclin D3 complex.
For the molecule `Cc1c(-c2csc(-c3sc(Nc4ccc(C(C)C)cc4)nc3N)n2)sc2ccc(Cl)cc12` [drawing 487], the inhibition at 20 µM is 47% in assay [1] and 32.3% on FL-CHK1. Besides, the values for the inhibition at 1 µM at CDK2/Cyclin A complex and at CDK4/Cyclin D3 complex were 38.6% and 79.6%, respectively.
For `CC(C)c1ccc(Nc2nc(N)c(-c3nc(-c4ccc(Cl)cc4Cl)cs3)s2)cc1`, the figures for the inhibition at 20 µM (in assay [1]; on FL-CHK1) were 23% and 21.4%, respectively. Besides, the inhibition at 1 µM at CDK2/Cyclin A complex was 25.7%; on CDK4/Cyclin D3 complex, 81.4%.
Turning to `CN(C)c1ccc(Nc2nc(N)c(-c3nc(-c4ccc(C#N)cc4)cs3)s2)cc1`, the inhibition at 20 µM is 11% in assay [1] and 8.2% on FL-CHK1. For the same molecule, the inhibition at 1 µM turned out to be 14.3% on CDK2/Cyclin A complex and 36.4% on CDK4/Cyclin D3 complex.
Regarding `CN(C)c1ccc(Nc2nc(N)c(-c3nc(-c4ccc(-c5ccccc5)cc4)cs3)s2)cc1`, the inhibition at 20 µM in assay [1] is -12%; on FL-CHK1, 5%. Besides, the inhibition at 1 µM at CDK2/Cyclin A complex was 14.5%; at CDK4/Cyclin D3 complex, -12.6%.
Take `Nc1nc(Nc2ccc(S(N)(=O)=O)cc2)sc1-c1nc(-c2ccc3ccccc3c2)cs1`: the inhibition at 20 µM in assay [1] came to 12%; on FL-CHK1, 7.8%. Also, the inhibition at 1 µM at CDK2/Cyclin A complex was 25.5%; at CDK4/Cyclin D3 complex, -8.9%.
Turning to `Nc1nc(Nc2ccc(S(N)(=O)=O)cc2)sc1-c1nc(-c2cccc(OC(=O)c3ccccc3)c2)cs1`, the inhibition at 20 µM was 43% in assay [1] and 6.8% at FL-CHK1. Further, the inhibition at 1 µM at CDK2/Cyclin A complex is 37.2%; at CDK4/Cyclin D3 complex it was -1.9%.
With `Cc1c(-c2csc(-c3sc(Nc4ccc(C(C)C)cc4)nc3N)n2)sc2ccc(Cl)cc12` [drawing 489], the “VEGF % inhibition at 20 μM” value in assay [1] is recorded as 42%. The “CHK1 % Inhibition at 20 μM” value on FL-CHK1 came to 17.8%. Moreover, at CDK2/Cyclin A complex, the “CDK2 % Inhibition at 1.0 μM” value came out at 31%. Moreover, at CDK4/Cyclin D3 complex, the “CDK4 % Inhibition at 1.0 μM” value came out at 79.9%.
For `COc1ccc(-c2csc(-c3sc(Nc4ccc(C(C)C)cc4)nc3N)n2)cc1` [drawing 488], the “VEGF % inhibition at 20 μM” value in assay [1] turned out to be 12%. The “CHK1 % Inhibition at 20 μM” value on FL-CHK1 was found to be 14.2%. Besides, on CDK2/Cyclin A complex, the “CDK2 % Inhibition at 1.0 μM” value is 38.3%. At CDK4/Cyclin D3 complex, the “CDK4 % Inhibition at 1.0 μM” value is given as 79%.
For `CC(C)c1ccc(Nc2nc(N)c(-c3nc(-c4ccccc4)cs3)s2)cc1` [drawing 498], the “VEGF % inhibition at 20 μM” value in assay [1] came to 22%. For the same molecule, the “CHK1 % Inhibition at 20 μM” value on FL-CHK1 is recorded as 0.2%. The “CDK2 % Inhibition at 1.0 μM” value on CDK2/Cyclin A complex amounted to 18.5%. Further, the “CDK4 % Inhibition at 1.0 μM” value on CDK4/Cyclin D3 complex turned out to be 59.4%.
Take `Cc1cc(-c2csc(-c3sc(Nc4ccc(S(N)(=O)=O)cc4)nc3N)n2)cc(C)c1O`: the inhibition at 20 µM is 25% in assay [1] and 13.4% at FL-CHK1. The inhibition at 1 µM is 40.7% on CDK2/Cyclin A complex and 46% on CDK4/Cyclin D3 complex.
